Source: patent US6723747B2, “Substituted 6H-DiBenzo[c,h]chromenes as estrogenic agents” (Wyeth, priority 2001, dated 2004)

Key:
[1] = tested on: HLA-B27 rats; assay: HLA-B27 rat model of arthritis; type: in vivo; conditions: 10 mg/kg orally once daily, Study 2
From the text: The degree of arthritis severity is monitored daily in terms of the following disease indices: Hindpaw erythema, hindpaw swelling, tenderness of the joints, and movements and posture. An integer scale of 0 to 3 is used to quantify the level of erythema (0=normal paw, 1=mild erythema, 2=moderate erythema, 3=severe erythema) and swelling (0=normal paw, 1=mild swelling, 2=moderate swelling, 3=severe swelling of the hind paw). The maximal score per day is 12.
Evaluation in the HLA-B27 Rat model of arthritis. Representative compounds of the invention were evaluated in the HLA-B27 rat standard pharmacological test procedure which emulates arthritis in humans. The following briefly describes the procedure used and results obtained. Male HLA-B27 rats (8-10 weeks old) were obtained from Taconic and provided unrestricted access to a food (PMI Lab diet 5001) and water. Rats were dosed orally once daily with either vehicle (2% tween-80/0.5% methylcellulose) or test compound (10 mg/kg) for 26 days. Joint scores and histology are evaluated as described above for the Lewis rat model of adjuvant-induced arthritis.

[2] = tested on: 129 SvE mice; assay: Mouse uterotrophic test procedure (Procedure 2); type: in vivo; conditions: 50 mg/kg subcutaneously, 4 days, immature mice; first experiment, vehicle 9.5 ± 0.3
Protocol: Procedure 2: Sexually immature (18 days of age) 129 SvE mice were obtained from Taconic and provided unrestricted access to a casein-based diet (Purina Mills 5K96C) and water. On day 22, 23, 24 and 25 the mice were dosed subcutaneously with compound or vehicle (corn oil). There were six mice/group and they were euthanized approximately 6 hours after the last injection by CO2 asphyxiation and pneumothorax. Uteri were removed and weighed after trimming associated fat and expressing any internal fluid. The following results (Table (2)) were obtained for representative compounds from the invention.

[3] = tested on: Lewis rats; assay: Lewis rat adjuvant-induced arthritis, treatment test procedure; type: in vivo; conditions: for joint inflammation score (maximal score per day 12): 10 mg/kg sc daily, treatment begun Day 8 after adjuvant
[4] = tested on: progesterone receptor mRNA in the preoptic area of the rat brain; assay: Progesterone receptor mRNA regulation test procedure; type: in vivo; conditions: 10 mg/kg, vehicle 189.2 ± 27.2
From the text: This test procedure can be used to evaluate the estrogenic or antiestrogenic activity of compounds from this invention [Shughrue, et al., Endocrinology 138: 5476-5484 (1997)].

[5] = molecular target: T1, human ERα (Homo sapiens, UniProt P03372); assay: Radioligand binding competition with [3H]-17β-estradiol, ERα; conditions: human ERα ligand binding domain, read-out: ER-α IC50
T1 construct: amino acids M250-V595 of human ERα; His (N); made in house; host or cells: E. coli BL21(DE3), clarified lysate
T1 sequence (P03372 250-595): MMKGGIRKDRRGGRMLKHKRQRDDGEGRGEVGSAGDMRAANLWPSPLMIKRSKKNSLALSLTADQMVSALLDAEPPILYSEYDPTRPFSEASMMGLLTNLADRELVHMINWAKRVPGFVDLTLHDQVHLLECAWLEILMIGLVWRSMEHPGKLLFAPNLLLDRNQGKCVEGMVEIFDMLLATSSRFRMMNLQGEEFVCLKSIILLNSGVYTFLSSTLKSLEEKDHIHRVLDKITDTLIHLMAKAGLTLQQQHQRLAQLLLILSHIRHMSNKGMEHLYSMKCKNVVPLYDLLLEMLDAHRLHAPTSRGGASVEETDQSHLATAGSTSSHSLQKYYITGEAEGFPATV

[6] = tarsal joints, 10 mg/kg, vehicle 2.58 ± 0.38

N#Cc1cc2c(c3ccc(O)cc13)OCc1cc(O)ccc1-2 [Example 1d, 2,8-Dihydroxy-6H-dibenzo[c,h]chromene-12-carbonitrile]
joint inflammation score ([1]; day 1, vehicle 0): 0
joint inflammation score ([1]; day 2, vehicle 0): 0
joint inflammation score ([1]; day 3, vehicle 0): 0
joint inflammation score ([1]; day 4, vehicle 0): 0
joint inflammation score ([1]; day 5, vehicle 0): 0
joint inflammation score ([1]; day 6, vehicle 0): 0
joint inflammation score ([1]; day 7, vehicle 0): 0
joint inflammation score ([1]; day 8, vehicle 2.5): 2
joint inflammation score ([1]; day 9, vehicle 3.75): 1.25
joint inflammation score ([1]; day 10, vehicle 2.75): 1
joint inflammation score ([1]; day 11, vehicle 3.5): 0
joint inflammation score ([1]; day 12, vehicle 1.25): 0.5
joint inflammation score ([1]; day 13, vehicle 1.25): 0.25
joint inflammation score ([1]; day 14, vehicle 1.25): 0
joint inflammation score ([1]; day 15, vehicle 5.25): 0.25
joint inflammation score ([1]; day 16, vehicle 4.5): 1
joint inflammation score ([1]; day 17, vehicle 3.5): 1
joint inflammation score ([1]; day 18, vehicle 3.75): 0.5
joint inflammation score ([1]; day 19, vehicle 5.5): 0.75
joint inflammation score ([1]; day 22, vehicle 3.25): 0.25
joint inflammation score ([1]; day 23, vehicle 6.5): 2
joint inflammation score ([1]; day 24, vehicle 6.5): 2
joint inflammation score ([1]; day 25, vehicle 6.25): 2
joint inflammation score ([1]; day 26, vehicle 7): 1.75
mean uterine weight ± SEM [2]: 9.8 ± 0.5 mg
joint inflammation score (maximal score per day 12) ([3]; day 1, vehicle 10.83): 11.33
joint inflammation score (maximal score per day 12) ([3]; day 2, vehicle 11.00): 11.15
joint inflammation score (maximal score per day 12) ([3]; day 3, vehicle 10.83): 11.33
joint inflammation score (maximal score per day 12) ([3]; day 4, vehicle 11.33): 9.83
joint inflammation score (maximal score per day 12) ([3]; day 5, vehicle 11.50): 8.83
joint inflammation score (maximal score per day 12) ([3]; day 6, vehicle 11.50): 7.83
joint inflammation score (maximal score per day 12) ([3]; day 7, vehicle 11.50): 6.16
joint inflammation score (maximal score per day 12) ([3]; day 8, vehicle 11.50): 5.00
joint inflammation score (maximal score per day 12) ([3]; day 9, vehicle 11.00): 4.33
joint inflammation score (maximal score per day 12) ([3]; day 10, vehicle 11.00): 2.66
joint inflammation score (maximal score per day 12) ([3]; day 11, vehicle 10.66): 1.83
joint inflammation score (maximal score per day 12) ([3]; day 12, vehicle 10.66): 1.83
joint inflammation score (maximal score per day 12) ([3]; day 13, vehicle 10.50): 2.66
joint inflammation score (maximal score per day 12) ([3]; day 14, vehicle 9.83): 2.66
joint inflammation score (maximal score per day 12) ([3]; day 15, vehicle 8.10): 2.00
joint inflammation score (maximal score per day 12) ([3]; day 16, vehicle 7.35): 2.00
joint inflammation score (maximal score per day 12) ([3]; day 17, vehicle 6.50): 1.50
Tidemark Integrity (0-1), Mankin score ([3]; tarsal joints, 10 mg/kg, vehicle 0): 0
Pannus (0-1), synovitis histological score, mean ± SD ([3]; tarsal joints, 10 mg/kg, vehicle 1.00 ± 0.89): 0.08 ± 0.20
Fibroplasia (0-3), synovitis histological score, mean ± SD ([3]; tarsal joints, 10 mg/kg, vehicle 1.75 ± 0.42): 0.75 ± 0.42
Saffranin-O/Fast Green Staining (0-4), Mankin score, mean ± SD ([3]; tarsal joints, 10 mg/kg, vehicle 2.50 ± 0.32): 1.25 ± 0.61
Cartilage Cells (0-3), Mankin score, mean ± SD [3, 6]: 0.58 ± 0.38
Synovial Structure (0-3), synovitis histological score, mean ± SD [3, 6]: 1.75 ± 0.52
Cartilage Structure (0-6), Mankin score, mean ± SD ([3]; tarsal joints, 10 mg/kg, vehicle 2.83 ± 0.26): 1.67 ± 0.41
Inflammatory Cells (0-3), synovitis histological score, mean ± SD ([3]; tarsal joints, 10 mg/kg, vehicle 2.92 ± 0.20): 1.33 ± 0.41
Total Mankin Score (0-14), mean ± SD ([3]; tarsal joints, 10 mg/kg, vehicle 7.92 ± 0.74): 3.50 ± 1.27
Total Synovitis Score (0-10), mean ± SD ([3]; tarsal joints, 10 mg/kg, vehicle 8.25 ± 1.57): 3.92 ± 1.36
Progesterone receptor mRNA (mean ± stdev) [4]: 403.9 ± 19.1 arbitrary units
IC50 [5]: 107 nM
